Laboratory results taken from patent US20240301409A1, “Chemically Modified Small Activating RNA” (RACTIGEN THERAPEUTICS, priority 2021, published 2024).
Oligonucleotides are written 5' to 3', each unit as a sugar letter and its base; * is a phosphorothioate linkage, no mark a phosphodiester; rarer units and linkages stand in square brackets, end groups in braces. Plain capitals give the bases only. m = 2'-O-methyl; r = 2'-OH (RNA); f = 2'-fluoro

How the values were obtained:
RNase A = biological target: T1, RNase A (Bos taurus, UniProt P61823); assay: saRNA stability analysis in the presence of RNase A (agarose gel); conditions: incubation 0 to 96 hours
T1 sequence (P61823 27-150): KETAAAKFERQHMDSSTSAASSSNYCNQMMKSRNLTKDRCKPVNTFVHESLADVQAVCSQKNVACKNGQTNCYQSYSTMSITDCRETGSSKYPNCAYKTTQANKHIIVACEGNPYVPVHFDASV
Method: The duplexes obtained at each time point above were each added to 1 μL of 10× loading buffer, and then frozen in liquid nitrogen. After incubation, all samples were detected for the double-stranded RNA by 4% agarose gel electrophoresis, and the content of each duplex was analyzed by Image J software.
The duplexes obtained at each time point indicated above were each added to 1 μL of 10× loading buffer, and then frozen in liquid nitrogen. After incubation, all samples were detected for the double-stranded RNA by 4% agarose gel electrophoresis, and the content of each duplex was analyzed by Image J software.
saRNA (1.5 μL, 10 μM) was incubated at a final concentration of 0.02 mg/mL in PBS in the presence of RNase A (Amresco, OH, USA) at 37° C. for different durations. At the end of the incubation, the mixture was snap frozen in liquid nitrogen to stop nuclease activity. Samples were analyzed on a 4% agarose gel and examined for duplex degradation.
All chemically modified duplexes (Rag1-40-1 to Rag1-40-32) were incubated with 0.02 μg/L of RNase A for different durations (0 to 96 hours). At the end of the incubation, the size and amount of duplexes were detected by agarose gel electrophoresis.

T24 cells = assay: Cellular proliferation assay (CCK8) in T24 cells, alone and combined with Mitomycin C or valrubicin; assay type: cell-based, human; conditions: T24 cells, 10 nM, 72 hours, CCK8
Description: (§1) After the transfection, the number of viable cells was detected with a CCK8 kit, and plotted as the percentage of the blank control treatment group. […] A transfection sample without oligonucleotide served as a blank control. Non-specific duplex (dsCon) transfected sample served as a negative control. Data are presented as mean±SD of at least two independent experiments. The values below the dashed line indicate stronger growth inhibitory activity compared to duplex Rag1-40 without chemical modification.
T24 cells were transfected with RAG1-40-31 at concentrations of 0.1, 0.5, 1, 5, 10, 25 and 50 nM for 24 hours, and then Mitomycin C was added at concentrations of 1, 10, 100, 1000 and 10000 nM. The combined treatment was carried out with concentrations in pairs. After treatment, the cellular proliferation was detected by CCK8 kit. FIGS. 16A-16B show the relative proliferation proportion of T24 cells after the combined treatment with chemically modified saRNA RAG1-40-31 and valrubicin. […] Control and DMSO are the blank transfection control and the solvent for dilution control, respectively.
T24 cells were transfected with RAG1-40-31 at concentrations of 0.1, 0.5, 1, 5, 10, 25 and 50 nM for 24 hours, and then valrubicin at concentrations of 1, 10, 100, 1000 and 10000 nM was added. The combined treatment was carried out with concentrations in pairs. After treatment, the cellular proliferation was detected by CCK8 kit.
(§2) Human bladder cancer cells Ku-7-LG (ATCC), J82 (ATCC) and T24 (ATCC) were cultured in McCoy medium (Gibco) comprising 10% calf serum (Sigma-Aldrich) and 1% penicillin/Streptomycin (Gibco). Cells were cultured at 37° C. under 5% CO2. Ku-7-LG, J82 and T24 cells were plated into 12-well plates at 10×10^4 cells per well, transfected with the small RNA at a concentration of 10 nM (unless otherwise specified) for three days, using RNAiMax (Invitrogen, Carlsbad, CA) according to the manufacturer's instructions. Two replicate wells were set for each treatment.
(§3) Cells were plated in a 96-well plate at 2˜4×10^3 cells/well, cultured overnight, and transfected with the oligonucleotide duplexes. Three days after transfection, CCK8 (Dojindo) was used to detect cellular proliferation following manufacturer's instructions. The experimental steps are briefly described as follows: 10 μL of CCK8 solution was added to each well, incubated at 37° C. for 1 hour, and then the absorbance at 450 nm was measured using a microplate reader.
(§4) It is known that p21 induction by saRNA is that a variety of tumor suppressor factors such as p21 protein suppress the proliferation of cancer cells. To evaluate the effect of chemically modified saRNAs on the function of cancer cells, cells (Ku-7-LG and T24) were transfected with 10 nM unmodified and modified saRNAs for 72 hours, and the cellular proliferation was determined by CCK8. […] Furthermore, there was a correlation between RNA activating activity (FIGS. 7A-7B) and suppression of cellular proliferation activity (FIGS. 8A-8B). Strong p21 activators are usually also strong cytostatics.

Ku-7-LG cells = assay: Cellular proliferation assay (CCK8) in Ku-7-LG cells; assay type: cell-based, human; conditions: 10 nM, 72 hours
Method: Ku-7-LG cells were transfected with the indicated saRNA at 10 nM for 3 days. […] The closer the luciferase value is to the control group, the lower the probability of off-target effects of saRNA is. Control and dsCon2 were blank transfection and double-stranded scramble RNA transfection, respectively. The value of the ordinate represents the mean±SD of two repeated treatments.
as §1, §2, §3, §4

[1] = test system: Rag1-40 target sequence in the 3′ UTR of firefly luciferase, COS-1 cells; assay: Analysis of off-target effects (pOff-Target dual luciferase reporter in COS-1 cells); conditions: lysed 48 hours after transfection, luciferase activity
INF-α = assay: PBMC cytokine release assay, INF-α (ELISA); conditions: 10 nM, 24 hours; for immunostimulatory activity (INF-α) compared with Rag1-40, in words: PBMC
Method: Cells were treated with the indicated duplexes at a final concentration of 10 nM or lipopolysaccharide (LPS) as a positive control for 24 hours, respectively. The levels of INF-α and TNF-α in the cell supernatant were detected by ELISA kit. […] Data represent mean±SD of two independent experiments.
Human peripheral blood mononuclear cells (Allcells, Alameda, CA) were seeded in a 96-well microplate at a density of approximately 10×10^4 cells/well. Transfection of dsRNA was performed using RNAiMAX (Invitrogen, Carlsbad, CA) following manufacturer's instructions. Supernatants were collected 24 hours after transfection and immediately assayed for IFN-α and TNF-α production using ELISA kit (R&D Systems). Each treatment group was analyzed in triplicate.
To assess the immunostimulatory effect of chemically modified saRNAs, human peripheral blood mononuclear cells (PBMC) from healthy donors were incubated with the double-stranded saRNAs, and INF-α and TNF-α levels in the supernatant of treated cells after 24 hours were measured.

Row | Substance | degradation of duplex at 96 hours (RNase A) | suppression of cellular proliferation, in words (T24 cells) | suppression of cellular proliferation, in words (Ku-7-LG cells) | off-target effect compared to unmodified Rag1-40, in words [1] | protein level of INF-α (INF-α; PBMC supernatant) [pg/mL] | immunostimulatory activity (INF-α) compared with Rag1-40, in words (INF-α)
1 | Rag1-40-24: saRNA duplex: sense mCmCAACUCAUUCUCCAAG*U*C (SEQ ID NO 15); antisense fUactfUGGAGAAfUGAGfUfUGG*fC*A (SEQ ID NO 13) (sense CCAACUCAUUCUCCAAGUC; antisense UACTUGGAGAAUGAGUUGGCA; 2'-OMe, 2'-F, phosphorothioates, DNA residues; modified_base (1)..(2) (1,2)=2′-O-methyl(2′-OMe); modified_base (17)..(19) (17,18,19)=phosphorothioate (PS) backbone modification; modified_base (1)..(17) (1,2,9,13,14,17)=2′-fluoro; (1)..(21) (1,5,6,7,8,9,10,11,12,13,14,15,1,61,7,18,19,20, 21)=RNA; (2)..(4) (2,3,4)=DNA; modified_base (16)..(18) (16,17,18)=phosphorothioate (PS) backbone modification) | little or no signs of degradation | weakens the activity of the saRNA duplex to suppress cellular proliferation | weakens the activity of the saRNA duplex to suppress cellular proliferation | completely inhibited |  | 
2 | RAG1-IS-1: RNA duplex known to have strong immunostimulatory activity, positive control: S GUCAUCACACUGAAUACCAAU (SEQ ID NO 20), AS AUUGGUAUUCAGUGUGAUGACAC (SEQ ID NO 21) (listed as RNA, chemistry not given here) [reference compound] |  |  |  |  | 708 | 
3 | Rag1-40-8: saRNA duplex: sense mCmCAACUCAUUCUCCAAGmUmC (SEQ ID NO 5); antisense fUactfUGGAGAAfUGAGfUfUGG*fC*A (SEQ ID NO 13) (sense CCAACUCAUUCUCCAAGUC; antisense UACTUGGAGAAUGAGUUGGCA; 2'-OMe, 2'-F, phosphorothioates, DNA residues; modified_base (1)..(19) (1,2,18,19)=2′-O-methyl(2′-OMe); modified_base (1)..(17) (1,2,9,13,14,17)=2′-fluoro; (1)..(21) (1,5,6,7,8,9,10,11,12,13,14,15,1,61,7,18,19,20, 21)=RNA; (2)..(4) (2,3,4)=DNA; modified_base (16)..(18) (16,17,18)=phosphorothioate (PS) backbone modification) | little or no signs of degradation | weakens the activity of the saRNA duplex to suppress cellular proliferation | weakens the activity of the saRNA duplex to suppress cellular proliferation | mitigated or similar off-target effects |  | reduced immunostimulatory activity
4 | Rag1-40-15: saRNA duplex: sense fCfCAACUCAUUCUCCAAGfUfC (SEQ ID NO 14); antisense U*A*fCfUfUGGAGAAfUGAGfUfUGG*fC*A (SEQ ID NO 12) (sense CCAACUCAUUCUCCAAGUC; antisense UACUUGGAGAAUGAGUUGGCA; 2'-F modifications, phosphorothioates; modified_base (1)..(19) (1,2,18,19)=2′-fluoro; modified_base (2)..(21) (2,3,19,20,21)=phosphorothioate (PS) backbone modification; modified_base (3)..(20) (3,4,5,12,16,17,20)=2′-fluoro) | little or no signs of degradation |  |  | mitigated or similar off-target effects |  | reduced immunostimulatory activity
5 | Rag1-40-9: saRNA duplex: sense fCfCAACUCAUUCUCCAAGfUfC (SEQ ID NO 14); antisense fUAfCfUfUGGAGAAfUGAGfUfUGGfCA (SEQ ID NO 6) (sense CCAACUCAUUCUCCAAGUC; antisense UACUUGGAGAAUGAGUUGGCA; 2'-F modifications; modified_base (1)..(19) (1,2,18,19)=2′-fluoro; modified_base (1)..(20) (1,3,4,5,12,16,17,20)=2′-fluoro) | little or no signs of degradation |  |  | mitigated or similar off-target effects |  | reduced immunostimulatory activity
6 | Rag1-40-5: saRNA duplex: sense mCmCAACUCAUUCUCCAAGmUmC (SEQ ID NO 5); antisense UACUfUGGAGAAfUGAGUfUGG*fC*A (SEQ ID NO 10) (sense CCAACUCAUUCUCCAAGUC; antisense UACUUGGAGAAUGAGUUGGCA; 2'-OMe, 2'-F, phosphorothioates; modified_base (1)..(19) (1,2,18,19)=2′-O-methyl(2′-OMe); modified_base (5)..(20) (5,12,17,20)=2′-fluoro; modified_base (19)..(21) (19,20,21)=phosphorothioate (PS) backbone modification) |  |  |  | completely inhibited |  | reduced immunostimulatory activity
7 | Rag1-40-13: saRNA duplex: sense fCfCAACUCAUUCUCCAAGfUfC (SEQ ID NO 14); antisense UACUfUGGAGAAfUGAGUfUGG*fC*A (SEQ ID NO 10) (sense CCAACUCAUUCUCCAAGUC; antisense UACUUGGAGAAUGAGUUGGCA; 2'-F modifications, phosphorothioates; modified_base (1)..(19) (1,2,18,19)=2′-fluoro; modified_base (5)..(20) (5,12,17,20)=2′-fluoro; modified_base (19)..(21) (19,20,21)=phosphorothioate (PS) backbone modification) |  |  |  | mitigated or similar off-target effects |  | reduced immunostimulatory activity
8 | Rag1-40-27: saRNA duplex: sense fCfCAACUCAUUCUCCAAG*U*C (SEQ ID NO 16); antisense fUmAfCfUfUmGmGmAmGmAmAfUmGmAmGfUfUmGmGfCmA (SEQ ID NO 8) (sense fCfCrArArCrUrCrArUrUrCrUrCrCrArArG*rU*rC) | little or no signs of degradation | negatively affects proliferation suppression activity | negatively affects proliferation suppression activity | completely inhibited |  | reduced immunostimulatory activity
